# From patent US12156860B2, “Disorders implicating PUFA oxidation” (BioJiva LLC, priority 2011, dated 2024)
# Experiments:
# [1] = tested on: WT (W303) yeast; conditions: 200 μM, 4 h incubation
# Protocol: Uptake of exogenously supplied fatty acids by yeast. WT (W303) yeast were harvested at log phase and incubated in the presence of 200 μM of the designated fatty acid for either 0 or 4 h.
# Wild-type yeast were harvested during log phase growth and incubated in the presence of exogenously added fatty acid (for 0 or 4 h) in the presence of phosphate buffer plus 0.20% dextrose, as described for the fatty acid sensitivity assay. Cells were harvested, washed twice with 10 ml sterile water, and the yeast cell pellets were then processed by alkaline methanolysis as described above. The fatty acids are detected as methylesters (FAMEs) following GC-MS with C17:0 added as an internal standard (FIG. 6).
# [2] = tested on: wild-type (W303-1B) yeast cells; conditions: four hour treatment; cited from earlier work
# [3] = tested on: coq null mutants (Q-less yeast); conditions: for viability of coq null mutants after fatty acid treatment: 200 μM fatty acid, plate dilution / colony assay; for protection in the yeast model: compared with D4-linolenic acid
# Protocol: FIG. 3. […] Yeast coq3, coq7 and coq9 null mutants were prepared in the W303 yeast genetic background (WT). Yeast strains were grown in YPD medium (1% Bacto-yeast extract, 2% Bacto-peptone, 2% dextrose) and harvested while in log phase growth (OD600 nm=0.1-1.0). Cells were washed twice with sterile water and resuspended in phosphate buffer (0.10 M sodium phosphate, pH 6.2, 0.2% dextrose) to an OD600 nm=0.2. Samples were removed and 1:5 serial dilutions starting at 0.20 OD/ml were plated on YPD plate medium, to provide a zero time untreated control (shown in top left panel). The designated fatty acids were added to 200 μM final concentration to 20 ml of yeast in phosphate buffer. At 2 h, 4 h, and 16 h samples were removed, 1:5 serial dilutions prepared, and spotted onto YPD plate medium. Pictures were taken after 2 days of growth at 30° C.
# FIG. 4. […] The fatty acid sensitive assay was performed as described in FIG. 3, except that 100 μl aliquots were removed at 1, 2, and 4 h and, following dilution, spread onto YPD plates. Pictures were taken after 2 to 2.5 days, and the number of colonies counted. Yeast strains include Wild type (circles), atp2 (triangles), or coq3 (squares); Fatty acid treatments include oleic C18:1 (solid line), linolenic, C18:3, n-3 (dashed line) or 11,11,14,14-D4-linolenic, C18:3, n-3, (dotted line).
# Q-less yeast (coq mutants) provide an ideal system to assess in vivo autoxidation of fatty acids. Coenzyme Q (ubiquinone or Q) serves as a small lipophilic antioxidant as well as an electron shuttle in the respiratory chain of the mitochondrial inner membrane. Ten S. cerevisiae genes (COQ1-COQ10) are required for coenzyme Q biosynthesis and function, and the deletion of any results in respiratory deficiency (Tran U C, Clarke C F. Mitochondrion 2007; 7S, 562).
# A plate dilution assay can be used to assess PUFA sensitivity. This assay can be performed by spotting serial five-fold dilutions of aliquots onto YPD plate media (FIG. 3). The sensitivity of the different strains can be observed by visual inspection of the density of cells in each spot.
# [4] = tested on: coq null mutants (Q-less yeast); conditions: cited from earlier work; for sensitivity of Q-less yeast to fatty acid treatment: compared with wild-type parental strain
# [5] = tested on: Q-less coq3 yeast; test: Yeast incubated with different ratios of H- and D-PUFA, plate dilution; type: cell-based, S. cerevisiae; conditions: after 3 hours of treatment, data not shown
# Protocol: FIG. 9. […] Wild-type, yeast Q-less coq3, or respiratory deficient cor1 null mutants were incubated in the presence of 200 μM of LA and D2-LA at different ratios of PUFAs. Serial dilutions (1:5) starting at 0.2 OD/ml were spotted on YPD solid plate medium. A zero-time untreated control is shown on the top left. Growth at 30° C.
# FIG. 10. […] Serial dilutions (1:5) starting at 0.2 OD/ml were spotted on YPD solid plate medium. Growth at 30° C.
# Wild-type, yeast Q-less coq3, or respiratory deficient cor1 null mutants were incubated in the presence of 200 μM of LA and D2-LA at different ratios of PUFAs, as indicated in FIG. 9. Serial dilutions (1:5) starting at 0.2 OD/ml were spotted on YPD solid plate medium. […] Growth was at 30° C.
# Serial dilutions (1:5) starting at 0.2 OD/ml were spotted on YPD solid plate medium. Growth was at 30° C.
# [6] = cited from earlier work
# [7] = Kinetics of O2 consumption during AMVN-initiated oxidation in chlorobenzene (glass capillary microvolumeter); type: physicochemical
# Protocol: FIG. 7. Kinetics of O2 consumption accompanied the oxidation of 0.71 M LA (plots 1 and 2) and 0.71 M D2-LA (plot 3) in chlorobenzene initiated by 40 mM AMVN at 37° C. Plot 2-0.23 mM HPMC was added to 0.71 M LA.
# The kinetics of oxygen consumption during the oxidation of LA and D2-LA was studied with a glass capillary microvolumeter (FIG. 7). The rate of oxidation, ROX, was measured as a slope of [O2] traces. The rate of initiation, RIN, was determined by the inhibitor method with HPMC (“6-hydroxy-2,2,5,7,8-pentamethylbenzochroman”) as a reference inhibitor. RIN was calculated from the induction period of inhibited oxidation, tIND: RIN=2·[HPMC]/tIND. […] When the process was inhibited by 0.23 mM chain-breaking antioxidant HPMC, the duration of the induction period, tIND, was about 48 min, with the RIN value of around 0.16×10^−6 M/s. […] The latter precludes a direct determination of RIN. […] An estimated kinetic isotope effect (“KIE”), from comparison of ROX for LA and D2-LA, was around 6.1×10^−6/0.18×10^−6≈35. A similar KIE was determined during the oxidation of LA and 11,11-d2-LA in Triton X-100 aqueous micelles (data not shown). For comparative purposes, the theoretical KIE is 6.9 at 25° C. See Carpenter, “Determination of Organic Reaction Mechanisms” (John Wiley & Sons, 1984), p. 89.
# [8] = tested on: NASH (MCD diet) rats; test: NASH induced by methionine and choline deficient diet; type: in vivo, Rattus norvegicus, Wistar; conditions: daily over three months
# Protocol: (§1) Fifty male heterozygous rats, 45-days-old, from the Rattus norvegicus species and Wistar lineage are kept in polypropylene cages, in groups of five animals, under a 12 h-clear/dark cycle and under controlled temperature conditions. The induction of NASH is carried out through a diet deficient in methionine and choline (MCD) according to known procedures (See Rogers A E, Newberne P M. Alcoholic and nutritional fatty liver and cirrhosis. Am J Pathol. 1973; 73:817-20). […] During the study period, the animals are weighed on a weekly basis and the drugs dose is readjusted as necessary. On the first day of the study, besides determining the animals' weight, their blood is collected through retro-orbital plexus puncture for biochemical analysis: alanine-aminotransferase (ALT) and aspartate-aminotransferase (AST) (colorimetric test, using the Labtest kit). One day after concluding the induction period and compound administration (90 days), animals are sacrificed by decapitation. Once more, each animal's blood is collected for biochemical analysis. Then, laparotomy with total hepatectomy and liver preparation are carried out for lipoperoxidation (LPO) and histological analysis. Liver tissue samples are analyzed using the thiobarbituric-acid reactant substance (TBARS) measurement according to known methods (See Lowry et al. Protein measurement with the folin phenol reagent. J Biol Chem. 1951; 193:265-75) and the results are expressed in nmol of malondialdehyde/mg of protein. Slides with liver fragments are also dyed with hematoxilin-eosine and picrosirius, in order to evaluate the fibrosis level, and with Perls to evaluate the presence of iron stores, having been examined by an only pathologist blinded to the animals' data. The minimum histological criterion for NASH diagnosis is the presence of hepatocellular ballooning-related steatosis, involving zone 3 and lobular inflammatory infiltrate. Mallory corpuscles and sinusoidal fibrosis, involving zone 3 might be present or not. The graduation of both necroinflammatory and fibrosis activity is carried out according to known classifications (See Brunt E M, Janney C G, Di Bisceglie A M, Neuschwander-Tetri B A, Bacon B R. Nonalcoholic steatohepatitis: a proposal for grading and staging the histological lesions. Am J Gastroenterol. 1999; 94:2467-74).
# [9] = tested on: alcoholic liver disease rats; test: Alcoholic liver disease and cirrhosis induced by 5% ethanol diet; type: in vivo, Rattus norvegicus, Wistar; conditions: 5% ethanol diet rats, daily over three months
# Protocol: as §1, with “alcoholic liver disease and cirrhosis” for “NASH”, “containing 5% ethanol […].” for “deficient in methionine and choline (MCD) according to known procedures (See Rogers A E, Newberne P M. Alcoholic and nutritional fatty liver and cirrhosis. Am J Pathol. 1973; 73:817-20).”, “days), the” for “days),”, “data.” for “data. The minimum histological criterion for NASH diagnosis is the presence of hepatocellular ballooning-related steatosis, involving zone 3 and lobular inflammatory infiltrate. Mallory corpuscles and sinusoidal fibrosis, involving zone 3 might be present or not. The graduation of both necroinflammatory and fibrosis activity is carried out according to known classifications (See Brunt E M, Janney C G, Di Bisceglie A M, Neuschwander-Tetri B A, Bacon B R. Nonalcoholic steatohepatitis: a proposal for grading and staging the histological lesions. Am J Gastroenterol. 1999; 94:2467-74).”
# [10] = tested on: stroke-prone spontaneously hypertensive (SHRSP) rat; test: SHRSP rat model of hypertension; type: in vivo; conditions: SHRSP rats, 8 weeks
# Source text: The stroke-prone spontaneously hypertensive (SHRSP) rat model of hypertension, which has been previously described (McIntyre et al., 1997 Hypertension 30:1517; Alexander et al., 1999 Cardiovasc. Res. 43:798; Fennell et al., 2002 Gene Ther. 9:110), can be used for the assessment of a compound's ability to mitigate hypertension.
# [11] = tested on: rat hearts; test: Langendorf isolated heart perfusion model, echo- and electrocardiography; type: in vivo; conditions: rats, 8 weeks supplementation
# Protocol: Test compounds disclosed herein can also be assessed using the Langendorf isolated heart perfusion model. […] Following the treatment period, rat hearts are analyzed by echocardiography for measurement of muscle thickness of the left ventricle, left atrium, right ventricle, and right atrium and electrocardiography for measuring electrical activity. After live evaluation, rats are humanely sacrificed and their hearts isolated and connected to the Langendorf isolated perfusion system (See Jennings et al., Am. Surg. 2004; 70(9), 797-800). Left ventricular pressure is then measured with a left ventricular balloon. Coronary flow is also measured. Cardiac function is further assessed by determining the effect of administration of test compounds on the rate of contraction and relaxation of the heart. To determine whether any observed effects on cardiac function are due to the effect of the test compound on mitochondrial function, mitochondrial activity pre-ischemia and post-ischemia is assessed for each of the treatment groups.
smiles,measurement,setting,value
"CC/C=C\C/C=C\C/C=C\CCCCCCCC(=O)O [linolenic acid, cis,cis,cis-9,12,15-Octadecatrienoic acid, reference compound]",incorporation of fatty acid by yeast,[1],avidly incorporate
same,wild-type cells remaining viable,[2],70%
same,viability of coq null mutants after fatty acid treatment,[3],dramatic loss of viability
same,"viable Q-less (coq2, coq3, and coq5) yeast mutants",[4]; following a four hour treatment,Less than 1%
"[2H]C(/C=C\CCCCC)/C=C\CCCCCCCC(=O)O (stereo not shown) [11,11-D,H-LA, [11^−2 H]-linoleic acid]",cell viability,[5],no detectable loss in cell viability
"[2H]C([2H])(/C=C\CC)/C=C\CC/C=C\CCCCCCC(=O)O [14, 14-D2-linolenic acid, 14,14-Dideutero-cis,cis,cis-octadeca-8,12,15-trienoic acid]",protection in the yeast model,[3],comparable protection
"[2H]O[2H] [heavy water, D2O]",amount a 70 kg person might drink without serious consequences,[6],4.8 L
CCCCCCCC/C=C\CCCCCCCC(=O)O [oleic acid],sensitivity of Q-less yeast to fatty acid treatment,[4],behave the same as the wild-type parental strain
"CCCCC/C=C\C/C=C\CCCCCCCC(=O)O [LA, cis,cis-9,12-Octadecadienoic acid, reference compound]","rate of oxidation, ROX","[7]; 0.71 M in chlorobenzene, 40 mM AMVN, 37° C.",6.1e-06 M/s
same,"length of the kinetic chain, ROX/RIN",[7]; for D2-LA assuming RIN comparable to that of LA,38±3
same,oxidizability,[7]; n=5,0.0215±0.008 M^−0.5 s^−0.5
"[2H]C([2H])(/C=C\CC)/C=C\C([2H])([2H])/C=C\CCCCCCCC(=O)O [D4-linolenic acid, 11,11,14,14-Tetradeutero-cis,cis,cis-9,12,15-Octadecatrienoic acid]",incorporation of fatty acid by yeast,[1],avidly incorporate
same,amount of MDA in liver samples (TBARS),[8],reduce the amount of MDA found in liver samples
same,histological signs of NASH,[8],reverse the histological signs of NASH
same,viability of coq null mutants after fatty acid treatment,[3],resistant to PUFA-mediated cell killing
same,viability of cells compared with oleic acid treatment,[3]; quantitative colony counting (FIG. 4),similar
same,amount of MDA in liver samples (TBARS),[9],reduce the amount of MDA found in liver samples
same,histological signs of fatty liver disease,[9],reverse the histological signs of fatty liver disease
same,systolic blood pressure,[10],reduction in systolic blood pressure
same,symptoms and markers associated with cardiac disorders,[11],reduce symptoms and markers associated with cardiac disorders
"[2H]C([2H])(/C=C\C/C=C\CC)C/C=C\CCCCCCC(=O)O [11, 11-D2-linolenic acid, 11,11-Dideutero-cis,cis,cis-octadeca-8,12,15-trienoic acid]",protection in the yeast model,[3],comparable protection
CCCCC/C=C\C/C=C\C/C=C\C/C=C\CCCC(=O)O [arachidonic acid],sensitivity of Q-less yeast to fatty acid treatment,[4],hypersensitive
